The text below walks through data of patent publication US20240254114A1, “PREPARATION OF FUSED AZOLE DERIVATIVES AS NOVEL DIACYLGLYCERIDE 0-ACYLTRANSFERASE 2 INHIBITORS” (Merck Sharp & Dohme LLC, priority 2022, published 2024).

The target of this assay is human DGAT2 (Homo sapiens (Human), UniProt Q96PD7). The assay can be described thus: DGAT2 Enzymatic Activity Assay. The note with it: 13C18-triolein product by LC/MS/MS.
Setting [1] is: read-out: Human DGAT2 IC50, hDGAT2 membrane prep from Sf-9 cells.

Read-outs that look alike come from different tables or passages of the source. A value given as a limit tells only on which side of the number the result lay.

Chain of human DGAT2 (Q96PD7 whole entry): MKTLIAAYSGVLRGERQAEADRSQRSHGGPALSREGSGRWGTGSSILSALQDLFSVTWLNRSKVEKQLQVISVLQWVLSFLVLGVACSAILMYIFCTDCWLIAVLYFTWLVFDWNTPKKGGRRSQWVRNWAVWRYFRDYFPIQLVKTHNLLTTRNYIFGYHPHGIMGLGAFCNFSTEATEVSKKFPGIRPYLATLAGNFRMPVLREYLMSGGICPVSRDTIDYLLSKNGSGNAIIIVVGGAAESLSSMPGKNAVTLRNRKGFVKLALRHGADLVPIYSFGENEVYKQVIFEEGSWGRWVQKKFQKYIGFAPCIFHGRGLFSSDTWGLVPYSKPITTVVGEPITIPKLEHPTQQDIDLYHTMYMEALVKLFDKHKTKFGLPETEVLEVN

One may read the IC50 as the concentration needed to halve the response being measured. As for `O=C(N[C@H]1CCCC(F)(F)[C@@H]1O)c1nc2ccc(Oc3ncc(Cl)cc3OCC(F)F)nc2s1` [Example 96, 5-((5-chloro-3-(2,2-difluoroethoxy)pyridin-2-yl)oxy)-N-((1S,2R)-3,3-difluoro-2-hydroxycyclohex-yl)thiazolo[5,4-b]pyridine-2-carboxamide], the IC50 under setting [1] is 3.3 nM. On the same count and under the same terms, as for `Cn1c(C(=O)NC2(C)CS(=O)(=O)C2)nc2ccc(Oc3ncc(F)cc3OCC(F)F)nc21` [Example 36, 5-[[3-(2,2-difluoroethoxy)-5-fluoro-2-pyridyl]oxy]-3-methyl-N-(3-methyl-1,1-dioxo-thietan-3-yl)imidazo[4,5-b]pyridine-2-carboxamide], the figure is 42 nM. `Cc1c(Oc2ncc(Cl)cc2OCC(F)F)cnc2nc(C(=O)NC3(C)CCS(=O)(=O)CC3)n(C)c12` [Example 84, 6-[[5-Chloro-3-(2,2-difluoroethoxy)-2-pyridyl]oxy]-1,7-dimethyl-N-(4-methyl-1,1-dioxo-thian-4-yl)imidazo[4,5-b]pyridine-2-carboxamide] registered an IC50 (Human DGAT2 IC50, hDGAT2 membrane prep from Sf-9 cells) of 7.8 nM. For `Cn1c(C(=O)NC2(C)CS(=O)(=O)C2)nc2ccc(Oc3ncccc3OCC(F)(F)F)nc21` [Example 35, 3-methyl-N-(3-methyl-1,1-dioxidothietan-3-yl)-5-((3-(2,2,2-trifluoroethoxy)pyridin-2-yl)oxy)-3H-imidazo[4,5-b]pyridine-2-carboxamide], the IC50 under setting [1] is over 9990 nM.
